Counter-ions that a name gives are not always drawn.
How the values were obtained:
[1] = molecular target: T1, human neurokinin-3 receptors expressed in CHO cell lines (Homo sapiens, UniProt P29371); test: biochemical; settings: human NK-3 receptors in CHO cell lines; radioligand [125I]-[Me-Phe7]-NKB; mean of 2-5 separate experiments in duplicate or triplicate; read-out: Binding affinity in hNK-3-CHO IC50
T1 sequence (P29371 1-465): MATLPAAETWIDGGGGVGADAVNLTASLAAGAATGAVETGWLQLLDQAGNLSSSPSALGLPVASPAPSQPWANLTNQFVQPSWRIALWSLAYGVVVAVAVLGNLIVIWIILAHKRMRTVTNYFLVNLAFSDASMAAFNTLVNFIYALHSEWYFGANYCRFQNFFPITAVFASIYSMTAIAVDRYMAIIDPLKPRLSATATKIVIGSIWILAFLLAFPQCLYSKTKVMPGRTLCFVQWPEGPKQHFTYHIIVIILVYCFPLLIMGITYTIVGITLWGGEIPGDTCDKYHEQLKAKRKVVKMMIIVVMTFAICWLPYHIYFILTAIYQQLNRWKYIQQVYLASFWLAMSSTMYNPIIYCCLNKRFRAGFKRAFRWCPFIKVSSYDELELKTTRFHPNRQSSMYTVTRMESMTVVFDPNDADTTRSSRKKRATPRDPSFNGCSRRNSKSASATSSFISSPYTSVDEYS
Experimental: The activity of the compounds of the present invention, as NK3 ligands, is determined by their ability to inhibit the binding of the radiolabelled NK3 ligands, [^125 I]-[Me--Phe^7 ]-NKB or [^3 H]-Senktide, to guinea-pig and human NK3 receptors (Renzetti et at, 1991, Neuropeptide, 18, 104-114; Buell et al, 1992, FEBS, 299(1), 90-95; Chung et al, 1994, Biochem. Biophys. Res. Commun., 198(3), 967-972).
The binding assays utilized allow the determination of the concentration of the individual compound required to reduce by 50% the [^125 I]-[Me--Phe^7 ]-NKB and [^3 H]-Senktide specific binding to NK3 receptor in equilibrium conditions (IC50).
The NK3 -antagonist activity of the compounds of the present invention is determined by their ability to inhibit senktide-induced contraction of the guinea-pig ileum (Maggi et al, 1990, Br. J. Pharmacol., 101, 996-1000) and rabbit isolated iris sphincter muscle (Hall et al., 1991, Eur. J. Pharmacol., 199, 9-14) and human NK3 receptors-mediated Ca^++ mobilization (Mochizuki et al, 1994, J. Biol. Chem., 269, 9651-9658). Guinea-pig and rabbit in-vitro functional assays provide for each compound tested a mean KB value of 3-8 separate experiments, where KB is the concentration of the individual compound required to produce a 2-fold rightward shift in the concentration-response curve of senktide. Human receptor functional assay allows the determination of the concentration of the individual compound required to reduce by 50% (IC50 values) the Ca^++ mobilization induced by the agonist NKB.

[2] = molecular target: T2, NK-3 receptor relative to the NK-2 receptor (Homo sapiens, UniProt P29371); test: Selectivity for the NK-3 receptor relative to the NK-2 receptor; assay type: binding; settings: in words
T2 construct: counter-target NK-2 receptor (TACR2, human P21452); assay not given
T2 sequence (P29371 1-465): T1 sequence (P29371 1-465)

NK-2 and NK-3 receptors = test: Combined NK-2/NK-3 antagonism; settings: in words

SMILES	IC50 [1] [nM]	selectivity for the NK-3 receptor relative to the NK-2 receptor [2]	combined NK-2/NK-3 antagonism (NK-2 and NK-3 receptors)
CC[C@H](NC(=O)c1c(OCCNC2Cc3ccccc3C2)c(-c2ccccc2)nc2ccccc12)c1ccccc1 [Example 8, (S)-N-(α-ethylbenzyl)-3-[2-(2-indanylamino)ethoxy]-2-phenylquinoline-4-carboxamide hydrochloride]	1.3	–	–
CC[C@H](NC(=O)c1c(OCCNC(=O)c2ccccc2)c(-c2ccccc2)nc2ccccc12)c1ccccc1 [Example 9, (S)-N-(α-ethylbenzyl)-3-(2-benzoylaminoethoxy)-2-phenylquinoline-4-carboxamide]	2.2	–	–
CC[C@H](NC(=O)c1c(OCCCC(=O)O)c(-c2ccccc2)nc2ccccc12)c1ccccc1 [Example 11, (S)-N-(a-ethylbenzyl)-3-(carboxypropoxy)-2-phenylquinoline-4-carboxamide]	1.7	–	–
CC[C@H](NC(=O)c1c(OCCNC(=O)CCC(=O)O)c(-c2ccccc2)nc2ccccc12)c1ccccc1 [Example 14, (S)-N-(a-ethylbenzyl)-3-[2-(3-carboxypropanoyl)aminoethoxy]-2-phenylquinoline-4-carboxamide]	2.3	–	–
CC[C@H](NC(=O)c1c(OCCNC(=O)Cc2ccccc2)c(-c2ccccc2)nc2ccccc12)c1ccccc1 [Example 22]	0.6	–	–
CC[C@H](NC(=O)c1c(OCCNC(=O)CN)c(-c2ccccc2)nc2ccccc12)c1ccccc1 [Example 25, (S)-N-(a-ethylbenzyl)-3-(2-aminoacetylaminoethoxy)-2-phenylquinoline-4-carboxamide]	2.6	–	–
CC[C@H](NC(=O)c1c(OCCNC(=O)Cc2ccncc2)c(-c2ccccc2)nc2ccccc12)c1ccccc1 [Example 26, (S)-N-(a-ethylbenzyl)-3-[2-(4-pyridylacetyl)aminoethoxy]-2-phenylquinoline-4-carboxamide]	0.9	–	–
CC[C@H](NC(=O)c1c(OCCNC(=O)Cc2ccccc2C(=O)O)c(-c2ccccc2)nc2ccccc12)c1ccccc1 [Example 29, (S)-N-(a-ethylbenzyl)-3-[2-(2'-carboxyphenylacetyl)aminoethoxy]-2-phenylquinoline-4-carboxamide]	0.8	–	–
CC[C@H](NC(=O)c1c(OCCNC(=O)c2ccccc2CC(=O)O)c(-c2ccccc2)nc2ccccc12)c1ccccc1 [Example 30, (S)-N-(a-ethylbenzyl)-3-[2-(2'-carboxymethylbenzoyl)aminoethoxy]-2-phenylquinoline-4-carboxamide]	1.5	–	–
CC[C@H](NC(=O)c1c(OCc2ccncc2)c(-c2ccccc2)nc2ccccc12)c1ccccc1 [Example 34]	1.6	particularly selective for the NK-3 receptor relative to the NK-2 receptor	–
CC[C@H](NC(=O)c1c(OCCNC(=O)c2cnccn2)c(-c2ccccc2)nc2ccccc12)c1ccccc1 [Example 36]	0.2	particularly selective for the NK-3 receptor relative to the NK-2 receptor	–
CC[C@H](NC(=O)c1c(OCCCNC(=O)c2cnccn2)c(-c2ccccc2)nc2ccccc12)c1ccccc1 [Example 38]	0.4	particularly selective for the NK-3 receptor relative to the NK-2 receptor	–
CC[C@H](NC(=O)c1c(OCCNC(=O)Cc2ccccc2CNC)c(-c2ccccc2)nc2ccccc12)c1ccccc1 [Example 39]	–	–	particularly suitable as combined NK-2/NK-3 antagonists
CC[C@H](NC(=O)c1c(OCCNC(=O)Cc2ccccc2CN2CCCC2)c(-c2ccccc2)nc2ccccc12)c1ccccc1 [Example 40]	1.3	–	particularly suitable as combined NK-2/NK-3 antagonists
CC[C@H](NC(=O)c1c(OCCNC(=O)Cc2ccccc2O)c(-c2ccccc2)nc2ccccc12)c1ccccc1 [Example 42]	0.4	–	–

From patent US6277862A, “Quinoline derivatives” (SmithKline Beecham S.p.A., priority 1995, dated 2001)
